pIC50: −log10 of the molar value.
Experiments:
in vivo [1] = conditions: both, Kunming (KM), mouse, po
Procedure: Healthy mice of Kunming breed (with half male and half female, (22±2) g) were provided by Qinglongshan Animal Cultivation Center, Nanjing.
The durations for the mice to maintain the posture with the two forepaws on the bars were recorded, and 30 s of spasticity without moving was considered as the positive response. In the case the forepaws of the mice were not put down persistently, the observation was terminated at 60 s. The numbers of animals with positive response in each of the compound dosage groups were counted.

KM mice [2] = experiment: in vivo; conditions: po, mice, single intragastric administration
Procedure: (§1) Limit Test of Sequential Assay
(§2) KM mice (half male and half female) were randomly divided into several groups (with 2-5 mice in each group), which were respectively the 2000 mg/kg groups for each compound, and the solvent group. 0.2 ml/10 g were administered intragastrically. The death of the animals in 3 days were observed. (In the case 3 or more animals survived in 3 days without notable abnormity in their life states, the observation was continued until the assay was completed in 7 days. In the case 3 or more animals died in 3 days, the median lethal dose method was used to determine the LD50).
(§3) Pre-Assay for the Median Lethal Dose Method
(§4) 0.2 ml/10 g were administered intragastrically, and the death of the animals in 1-3 days were observed.

in vivo [3] = conditions: both sexes, mouse, in vivo; po, mice, single intragastric administration; read-out: LD50
Procedure: as §1, §2, §3, §4

KM mice [4] = experiment: Apomorphine induced clambering assay of mice; type: in vivo; conditions: for Scoring (value), apomorphine induced clambering: x ± s, n = 10; for ED50: Mus musculus, read-out: apomorphine induced clambering ED50
Procedure: Apomorphine Induced Clambering Assay of Mice
Healthy KM mice (male, with body weight of 18-22 g) were provided by Qinglongshan Animal Cultivation Center, Nanjing.
Apomorphine provided by Sigma Company was dissolved in 0.9% NaCl (containing 0.1% vitamin C) before use, and was freshly formulated before use.
Vitamin C, F20061113, was provided by Sinopharm Chemical Reagent Co. Ltd.
Sodium chloride injection, H32026305, was provided by Xuzhou No. 5 Pharmaceutical Factory Co. Ltd.
Instruments: self-made clambering cage, chronograph.
Procedures: apomorphine induced clambering assay of mice
After 5 min of adaptation, the behaviors of the mice at 10-11, 20-21, and 30-31 min after the injection of apomorphine were observed and scored. Scoring criteria: 4 paws on the floor was scored as 0; 2 forepaws on the cage was scored as 1; and 4 paws on the cage was scored as 2.

mice of Kunming breed = experiment: MK-801 induced high activity; type: in vivo; conditions: po, mice; for ED50: Mus musculus
Procedure: Healthy mice of Kunming breed (with half male and half female, (20±2) g) were provided by Qinglongshan Animal Cultivation Center, Nanjing.
Ascorbic acid was provided by Sinopharm Chemical Reagent Co. Ltd.
Tween 80, with the concentration of 10%.
Subsequently, the spontaneous activities of the mice of each group in 90 min were measured.

5HT2A receptor = 5HT2A receptor (Rattus norvegicus (Rat), UniProt P14842); experiment: 5HT2A receptor binding assay ([3H]-Ketanserin)
5HT1A receptor = 5HT1A receptor (Rattus norvegicus (Rat), UniProt P19327); experiment: 5HT1A receptor binding assay (3H-8-OH-DPAT)
Procedure: Preparation of 5HT1A Membrane
Incubation at 37° C. was conducted for 10 min, the weight of the tubes were adjusted using a balance after incubation. […] Centrifugation was conducted and repeated 3 times.
Materials for the Receptor Binding Assay

D2 receptor = D2 receptor (Rattus norvegicus (Rat), UniProt P61169); experiment: D2 receptor inhibition binding assay (3H-Spiperone)
Procedure: Rats were sacrificed by cervical dislocation on ice. Cerebral cortex was rapidly taken, and 2 cerebral cortexes were combined into a centrifuge tube, to which 3 ml of buffer (0.05 M Tris-HCl buffer, containing NaCl 120 mM, KCl 5 mM, MgCl2 1 mM, CaCl2 1 mM) was added, homogenization was conducted for 3-4 s at level 4 for four times, and then 5 ml of buffer was then added. The weight of the homogenized tubes were adjusted using a balance, and centrifugation was conducted at 12000 r, 4° C. for 20 min. The supernatant was discarded, and 3 ml of B solution was added. Vortex mixer was used for blending, and then 5 ml of B solution was added. Centrifugation was conducted and repeated 3 times. After the centrifugations, the supernatant was discarded, and the pellets were stored at −80° C. for future use.
Beckman LS-6500 Multi-function Liquid Scintillation Counter was used.
(1) The prepared membrane was first applied with appropriate amount of homogenized liquid, and homogenizer was used for evenly dispersing. 15 tubes were mixed into a 100 ml container, and appropriate amount of homogenized liquid was added to give 50 ml of membrane suspension, which was reserved for future use.
(2) 100 μL of membrane preparation and 100 μL of buffer were added into each reaction tube.
(3) 100 μL of homogenized liquid was added into the total binding tube (TB), 100 μL of Butaclamol (final concentration 10^−5 M) was added into the non-specific binding tube (NB), and 100 μL of the test compound (final concentration 10^−5 M) was added into the specific binding tube (SB) for each compound.
(5) Each of the reaction tubes was incubated at 37° C. for 20 min. After the reaction was completed, the bound ligands were rapidly filtered under reduced pressure, and the ice-chilled assay buffer was used for adequate washing. The filter was taken out and put into a 3 ml scintillation vial, and 2 ml of toluene scintillation solution was added and blended.
(6) The scintillation vials were put into Liquid Scintillation Counter for counting. Inhibitory rate (I %)=(Total binding tube cpm−compound cpm)/(Total binding tube cpm−non-specific binding tube cpm)×100%
Each assay for the compounds was conducted in duplicate.

D3 receptor = D3 receptor (Homo sapiens (Human), UniProt P35462); experiment: D3 receptor competitive binding assay ([3H]-Spiperone, HEK-293 cells)
Procedure: After the cells were centrifuged at 1000 rpm for 5 min, the supernatant was discarded, and the cell pellet was collected and stored in a -20° C. fridge for reservation. It was re-suspended with Tris-Cl (pH 7.4) in the assay. […] Tris was divided into aliquots by […] Technology Inc. Procedures Competitive binding test for receptors: 20 μl of each of the test compounds and 20 μl of the radioactive ligand together with 160 μl of the receptor proteins were added into the reaction tubes, and the final concentrations of the test compound and the positive drug were all 10 μmol/L. After 50 min of incubation in 30° C. water bath, the tubes were immediately moved to ice bath to terminate the reactions. GF/C glass fiber filter papers were used for rapid sucking filtration on a Millipore cell sample collector, elution buffer (50 mM Tris-HCl, PH 7.4) was applied for 3 ml×3 times, and microwave was applied for 4-5 min for drying. The filter papers were moved into 0.5 ml centrifuge tubes, and 500 μl of lipid-soluble scintillation solution was added. The tubes were allowed to stand still for over 30 min in dark, and the intensities of radioactivity were measured by a counter.

5HT2C receptor = 5HT2C receptor (Rattus norvegicus (Rat), UniProt P08909); experiment: 5HT2C receptor binding assay ([3H]-mesulergine)
Chain of 5HT2C receptor (P08909 33-460): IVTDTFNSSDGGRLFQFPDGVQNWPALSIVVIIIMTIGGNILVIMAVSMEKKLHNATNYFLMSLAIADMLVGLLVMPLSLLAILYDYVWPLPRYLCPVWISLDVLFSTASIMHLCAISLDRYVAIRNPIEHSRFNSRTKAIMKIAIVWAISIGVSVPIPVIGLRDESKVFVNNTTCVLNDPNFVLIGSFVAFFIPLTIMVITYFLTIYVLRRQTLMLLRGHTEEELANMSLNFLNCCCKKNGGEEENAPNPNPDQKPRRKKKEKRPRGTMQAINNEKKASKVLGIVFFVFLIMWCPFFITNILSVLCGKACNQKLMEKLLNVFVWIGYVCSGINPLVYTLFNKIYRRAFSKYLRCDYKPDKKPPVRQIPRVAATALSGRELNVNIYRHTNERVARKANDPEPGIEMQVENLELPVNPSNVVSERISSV

Chain of D3 receptor (P35462 whole entry): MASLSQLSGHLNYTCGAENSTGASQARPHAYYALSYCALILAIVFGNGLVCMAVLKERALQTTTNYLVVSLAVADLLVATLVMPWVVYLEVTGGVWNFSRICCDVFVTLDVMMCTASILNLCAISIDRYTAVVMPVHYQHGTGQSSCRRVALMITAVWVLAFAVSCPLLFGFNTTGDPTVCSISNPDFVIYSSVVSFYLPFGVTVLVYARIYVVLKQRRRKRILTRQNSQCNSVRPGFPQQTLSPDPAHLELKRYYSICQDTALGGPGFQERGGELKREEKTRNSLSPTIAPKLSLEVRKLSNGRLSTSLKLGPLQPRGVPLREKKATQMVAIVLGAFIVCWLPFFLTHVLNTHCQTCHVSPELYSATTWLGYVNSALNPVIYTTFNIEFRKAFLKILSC
Chain of 5HT2A receptor (P14842 whole entry): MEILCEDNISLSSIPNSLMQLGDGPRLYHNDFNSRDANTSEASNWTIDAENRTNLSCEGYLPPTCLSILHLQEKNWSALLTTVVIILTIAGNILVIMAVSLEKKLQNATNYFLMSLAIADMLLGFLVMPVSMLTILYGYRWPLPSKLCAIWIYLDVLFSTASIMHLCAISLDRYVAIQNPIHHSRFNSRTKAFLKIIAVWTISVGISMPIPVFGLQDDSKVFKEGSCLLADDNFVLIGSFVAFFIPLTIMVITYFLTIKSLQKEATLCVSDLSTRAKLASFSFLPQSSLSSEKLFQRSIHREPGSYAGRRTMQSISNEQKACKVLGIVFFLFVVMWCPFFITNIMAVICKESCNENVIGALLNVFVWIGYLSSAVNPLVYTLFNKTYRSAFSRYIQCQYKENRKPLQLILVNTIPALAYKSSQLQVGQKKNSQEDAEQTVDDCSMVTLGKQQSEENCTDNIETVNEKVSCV
Chain of 5HT1A receptor (P19327 whole entry): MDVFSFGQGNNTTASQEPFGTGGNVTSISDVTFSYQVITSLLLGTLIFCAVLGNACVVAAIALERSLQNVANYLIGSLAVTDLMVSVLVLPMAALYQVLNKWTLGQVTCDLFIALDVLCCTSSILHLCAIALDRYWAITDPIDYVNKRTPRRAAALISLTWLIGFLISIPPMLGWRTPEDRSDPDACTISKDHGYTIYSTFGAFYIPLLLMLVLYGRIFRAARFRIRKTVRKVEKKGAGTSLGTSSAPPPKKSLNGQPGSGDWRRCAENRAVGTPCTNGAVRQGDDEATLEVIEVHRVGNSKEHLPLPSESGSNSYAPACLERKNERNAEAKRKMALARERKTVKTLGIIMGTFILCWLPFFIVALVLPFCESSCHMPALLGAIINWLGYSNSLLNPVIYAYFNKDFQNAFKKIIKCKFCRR
Chain of D2 receptor (P61169 whole entry): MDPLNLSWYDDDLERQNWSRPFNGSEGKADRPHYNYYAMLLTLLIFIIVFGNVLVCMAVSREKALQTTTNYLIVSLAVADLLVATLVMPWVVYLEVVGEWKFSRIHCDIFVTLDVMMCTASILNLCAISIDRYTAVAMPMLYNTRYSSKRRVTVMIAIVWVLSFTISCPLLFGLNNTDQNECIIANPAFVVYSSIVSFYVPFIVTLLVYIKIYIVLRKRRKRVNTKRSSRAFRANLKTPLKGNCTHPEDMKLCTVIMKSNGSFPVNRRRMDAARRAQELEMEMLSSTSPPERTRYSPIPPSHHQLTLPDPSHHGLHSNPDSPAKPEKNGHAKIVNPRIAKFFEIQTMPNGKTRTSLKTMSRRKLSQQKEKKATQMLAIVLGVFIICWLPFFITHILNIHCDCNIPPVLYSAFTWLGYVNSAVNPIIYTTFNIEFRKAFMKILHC

## CN1CCN(C2=Nc3cc(Cl)ccc3Nc3ccccc32)CC1 [clozapine]
In vivo [1]
  ED50: > 50 mg/kg
KM mice [2]
  LD50: 150 mg/kg
In vivo [3]
  LD50: 150 mg/kg
KM mice [4]; dosage 10 mg/kg
  Scoring (value), apomorphine induced clambering: 5.50 ± 0.76
KM mice [4]; dosage 17.4 mg/kg
  Scoring (value), apomorphine induced clambering: 4.60 ± 2.07
KM mice [4]; dosage 23 mg/kg
  Scoring (value), apomorphine induced clambering: 3.70 ± 2.21
KM mice [4]; dosage 30 mg/kg
  Scoring (value), apomorphine induced clambering: 0.60 ± 1.07
KM mice [4]; po, mice
  apomorphine induced clambering ED50: 17.92 mg/kg
Mice of Kunming breed
  MK-801 induced high activity ED50: 2.28 mg/kg

## O=c1oc2cc(OCCCN3CCC(c4noc5cc(F)ccc45)CC3)ccc2c2c1CCC2 [Compound 5, 7-{3-[4-(3-(6-fluoro-benzisoxazole)-1-piperidyl)-n-propoxy]}-2,3-dihydro-1H-cyclopenteno[c]benzopyran-4-one]
5HT2A receptor
  pIC50: 9.25
In vivo [1]; in vivo
  ED50: 168 mg/kg
5HT1A receptor
  pIC50: 10.52
In vivo [3]
  LD50: > 2000 mg/kg
KM mice [4]; po, mice
  ED50: 0.68 mg/kg
KM mice [4]; dosage 0.1 mg/kg
  Scoring (value), apomorphine induced clambering: 4.60 ± 2.07
KM mice [4]; dosage 0.3 mg/kg
  Scoring (value), apomorphine induced clambering: 3.00 ± 1.94
KM mice [4]; dosage 1 mg/kg
  Scoring (value), apomorphine induced clambering: 0.90 ± 1.20
KM mice [4]; dosage 3 mg/kg
  Scoring (value), apomorphine induced clambering: 0.20 ± 0.63
D2 receptor
  pIC50: 8.25
Mice of Kunming breed
  ED50: 0.35 mg/kg
D3 receptor
  pIC50: 8.05
5HT2C receptor
  pIC50: 5.94

## O=c1oc2c(Cl)c(OCCCCN3CCN(c4nsc5ccccc45)CC3)ccc2c2c1CCC2 [Compound 14, 7-{4-[4-(3-(1,2-benzisothiazole)-1-piperazinyl)-n-butoxy]}-6-chloro-2,3-dihydro-1H-cyclopenteno[c]benzopyran-4-one]
5HT2A receptor
  pIC50: 9.09
In vivo [1]; in vivo
  ED50: 189 mg/kg
5HT1A receptor
  pIC50: 9.07
In vivo [3]
  LD50: > 2000 mg/kg
KM mice [4]; po, mice
  ED50: 0.25 mg/kg
KM mice [4]; dosage 0.1 mg/kg
  Scoring (value), apomorphine induced clambering: 5.30 ± 1.25
KM mice [4]; dosage 0.3 mg/kg
  Scoring (value), apomorphine induced clambering: 2.10 ± 1.85
KM mice [4]; dosage 1 mg/kg
  Scoring (value), apomorphine induced clambering: 1.25 ± 1.75
KM mice [4]; dosage 3 mg/kg
  Scoring (value), apomorphine induced clambering: 0.25 ± 0.71
KM mice [4]; dosage 10 mg/kg
  Scoring (value), apomorphine induced clambering: 0.80 ± 1.40
D2 receptor
  pIC50: 8.00
Mice of Kunming breed
  ED50: 0.82 mg/kg
D3 receptor
  pIC50: 7.82
5HT2C receptor
  pIC50: 5.83

## O=C(CCCN1CCC(O)(c2ccc(Cl)cc2)CC1)c1ccc(F)cc1 [haloperidol]
In vivo [1]
  ED50: 0.44 mg/kg
KM mice [2]
  LD50: 20 mg/kg
In vivo [3]
  LD50: 20 mg/kg
KM mice [4]; po, mice
  ED50: 0.1 mg/kg
KM mice [4]; dosage 0.1 mg/kg
  Scoring (value), apomorphine induced clambering: 4.50 ± 1.78
KM mice [4]; dosage 0.13 mg/kg
  Scoring (value), apomorphine induced clambering: 1.50 ± 1.27
KM mice [4]; dosage 0.174 mg/kg
  Scoring (value), apomorphine induced clambering: 2.20 ± 1.69
KM mice [4]; dosage 0.23 mg/kg
  Scoring (value), apomorphine induced clambering: 0.80 ± 0.79
KM mice [4]; dosage 0.3 mg/kg
  Scoring (value), apomorphine induced clambering: 0.70 ± 0.82
KM mice [4]; dosage 1 mg/kg
  Scoring (value), apomorphine induced clambering: 0.60 ± 1.58
Mice of Kunming breed
  MK-801 induced high activity ED50: 7.42 mg/kg

## O=c1oc2c(Cl)c(OCCCCN3CCC(c4noc5cc(F)ccc45)CC3)ccc2c2c1CCC2 [Compound 15, 7-{4-[4-(3-(6-fluoro-benzisoxazole)-1-piperidyl)-butoxy]}-6-chloro-2,3-dihydro-1H-cyclopenteno[c]benzopyran-4-one]
5HT2A receptor
  pIC50: 9.54
In vivo [1]; in vivo
  ED50: 98.9 mg/kg
5HT1A receptor
  pIC50: 9.14
In vivo [3]
  LD50: > 2000 mg/kg
KM mice [4]; po, mice
  ED50: 0.56 mg/kg
KM mice [4]; dosage 0.1 mg/kg
  Scoring (value), apomorphine induced clambering: 4.75 ± 1.58
KM mice [4]; dosage 0.3 mg/kg
  Scoring (value), apomorphine induced clambering: 3.38 ± 0.92
KM mice [4]; dosage 1 mg/kg
  Scoring (value), apomorphine induced clambering: 3.00 ± 1.60
KM mice [4]; dosage 3 mg/kg
  Scoring (value), apomorphine induced clambering: 0.50 ± 0.76
D2 receptor
  pIC50: 8.09
Mice of Kunming breed
  ED50: 1.25 mg/kg
D3 receptor
  pIC50: 8.07
5HT2C receptor
  pIC50: 5.72

## COc1ccccc1N1CCN(CCCCOc2ccc3c4c(c(=O)oc3c2)CCCC4)CC1 [Compound 19, 3-{4-[4-(2-methoxyphenyl)piperazin-1-yl]-butoxy}-7,8,9,10-tetrahydrobenzo[c]benzopyran-6-one]
5HT2A receptor
  pIC50: 8.74
In vivo [1]; in vivo
  ED50: 156 mg/kg
5HT1A receptor
  pIC50: 8.38
In vivo [3]
  LD50: > 2000 mg/kg
KM mice [4]; po, mice
  ED50: 0.15 mg/kg
KM mice [4]; dosage 0.3 mg/kg
  Scoring (value), apomorphine induced clambering: 4.90 ± 1.10
KM mice [4]; dosage 0.52 mg/kg
  Scoring (value), apomorphine induced clambering: 0.75 ± 1.04
KM mice [4]; dosage 1 mg/kg
  Scoring (value), apomorphine induced clambering: 1.50 ± 1.20
KM mice [4]; dosage 3 mg/kg
  Scoring (value), apomorphine induced clambering: 0.40 ± 0.97
D2 receptor
  pIC50: 8.44
Mice of Kunming breed
  ED50: 2.35 mg/kg
D3 receptor
  pIC50: 7.88
5HT2C receptor
  pIC50: 5.95
